Data published in patent US20190046513A1, “COMBINATION THERAPIES OF HDAC INHIBITORS AND TUBULIN INHIBITORS” (HUYA Bioscience International, LLC, priority 2017, published 2019).
Where a name gives a salt, the structure may show the parent alone.

Legend:
Format in all cases: in vivo, BALB/c mice
[1] = test system: 4T1 murine mammary carcinoma cells; assay: Primary tumor volume distribution, 4T1 tumor-bearing mice (Example 2); conditions: HBI-8000 50 mg/kg p.o. qd×16, eribulin 1 mg/kg i.v., FIG. 4
Method: (§1) In the present example, HBI-8000 was tested as monotherapy at 50 mg/kg, and in combination with eribulin mesylate at 1.0 mg/kg. The experiment included a vehicle-treated group, and eribulin at 1.0 mg/kg, which served as the control groups for analysis of efficacy.
(§2) Tumor Implantation: Cells were harvested during exponential growth, and resuspended in cold DMEM. Each mouse was inoculated subcutaneously in the right flank with 0.5×10^6 4T1 cells (0.1 mL of cell suspension). Tumors were calipered in two dimensions to monitor growth as their mean volume approached the desired 100-150 mm^3 range. Tumor burden was calculated using the formula:
where w=width and 1=length, in mm, of the tumor. Tumor weight may be estimated with the assumption that 1 mg is equivalent to 1 mm3 of tumor volume. Fourteen days after tumor implantation, which was designated as Day 1 of the study, animals with individual tumor volumes from animals with individual tumor volumes ranging from 75 to 108 mm3 were sorted into the “LOOK-SEE” group (n=15) and eight efficacy groups (n=10) with group mean tumor volumes of 95 mm3.
Treatment: On Day 1 of the study, mice bearing established 4T1 tumors began dosing according to the treatment plan described below. All agents were administered in dosing volumes of 10 mL/kg; volumes were adjusted according to BW of the individual animal. […]

[2] = test system: 4T1 murine mammary carcinoma cells; assay: Lung metastasis count, 4T1 tumor-bearing mice (Example 1, Study Group B); conditions: Example 1, monotherapies; Day 14
Method: (§3) In the present example, HBI-8000 was tested as monotherapy at 50 mg/kg, and in combination with eribulin mesylate at 0.3 mg/kg and 1.0 mg/kg. The experiment included a vehicle-treated group, and eribulin at 0.3 mg/kg and 1.0 mg/kg, which served as the control groups for analysis of efficacy.
In the second group (Study Group B, tumor-bearing mice were monitored for the development of lung metastases until the number of metastatic nodules reached 30-50 per animal. All animals were euthanized on Day 14, the lungs removed and processed for analysis of metastatic burden.
where w=width and 1=length, in mm, of the tumor. Tumor weight may be estimated with the assumption that 1 mg is equivalent to 1 mm^3 of tumor volume. […]
Lung Metastasis: Animals were sacrificed at endpoint using isoflurane anesthesia and necropsies were performed to identify metastases. […] Percent inhibition was defined as the difference between the number of metastatic foci of the designated control group and the number of metastatic foci of the drug-treated group, expressed as a percentage of the number of metastatic foci of the designated control group: […]
Statistics: Prism (GraphPad) for Windows 6.07 was used for graphical presentations and statistical analyses. […] Logrank analysis includes the data for all animals in a group except those assessed as NTR deaths. […]

[3] = test system: 4T1 murine mammary carcinoma cells; assay: Tumor growth delay, subcutaneous 4T1 tumors (Example 1, Study Group A); conditions: for Median TTE: endpoint tumor volume 1000 mm^3, n=10; for % TGD: vs vehicle group
Method: as §3
Two study groups were used; in the first group (Study Group A) tumor growth inhibition and survival were measured. Tumors were measured twice per week until the study was ended on Day 21. Each animal was euthanized when its tumor attained the endpoint tumor volume of 1000 mm^3 or on the final day of the study, whichever came first, and the time to endpoint (TTE) for each mouse was calculated. Treatment response was determined from an analysis of percent tumor growth delay (% TGD), defined as the percent increase in the median time to endpoint (TTE) for treated versus control mice; and by log-rank significance of differences in survival among groups and regression responses.
Mice: Female BALB/c mice (Charles River Laboratories) were seven weeks old, with a body weight (BW) range of 15.6 to 20.2 grams on Day 1 of the study. The animals were fed ad libitum water (reverse osmosis, 1 ppm Cl), and NIH 31 Modified and Irradiated Lab Diet® consisting of 18.0% crude protein, 5.0% crude fat, and 5.0% crude fiber. The mice were housed on irradiated Enrich-O'Cobs™ Laboratory Animal Bedding in static microisolators on a 12-hour light cycle at 20-22° C. (68-72° F.) and 40-60% humidity.
Tumor Cells: 4T1 murine mammary carcinoma cells were maintained in Dulbecco's Modified Eagle Medium (DMEM) supplemented with 10% fetal bovine serum and 2 mM glutamine, 100 units/mL penicillin G sodium, 100 μg/mL streptomycin sulfate, and 25 μg/mL gentamicin. Cell cultures were maintained in tissue culture flasks in a humidified incubator at 37° C., in an atmosphere of 5% CO2 and 95% air.
as §2, with “1×10^6” for “0.5×10^6”
where w=width and 1=length, in mm, of the tumor. Tumor weight may be estimated with the assumption that 1 mg is equivalent to 1 mm^3 of tumor volume. Nine days after tumor implantation, which was designated as Day 1 of the study, animals with individual tumor volumes from 108 to 126 mm^3 were sorted into treatment groups. For Study Group A the animals were sorted into 6 treatment groups (Table 1; n=10/group) with group mean tumor volume of 117 mm^3. For Study Group B the animals were also sorted into 6 treatment groups (Table 1; n=5/group) with group mean tumor volume of 117 mm^3.
Tumor Growth Delay: Tumors were measured using calipers twice per week, and each animal was euthanized when its tumor reached a volume of 1000 mm^3 or at the end of the study (D47), whichever came first. Animals that exited the study for tumor volume endpoint were documented as euthanized for tumor progression (TP), with the date of euthanasia. The time to endpoint (TTE) for analysis was calculated for each mouse by the following equation: […]
where TTE is expressed in days, endpoint volume is expressed in mm^3, b is the intercept, and m is the slope of the line obtained by linear regression of a log-transformed tumor growth data set. The data set consisted of the first observation that exceeded the endpoint volume used in analysis and the three consecutive observations that immediately preceded the attainment of this endpoint volume. The calculated TTE is usually less than the TP date, the day on which the animal was euthanized for tumor burden. […]

[4] = test system: 4T1 murine mammary carcinoma cells; assay: Lung metastasis count, 4T1 tumor-bearing mice (Example 2); conditions: HBI-8000 50 mg/kg p.o. qd×16, eribulin 1 mg/kg i.v., Day 18, FIG. 3
Method: as §1
Two study groups were used; in the first group, a sentinel group (termed LOOK-SEE) tumor-bearing mice were monitored for the development of lung metastases until the number of metastatic nodules reached 30-50 per animal. After meeting that criteria, all animals in Group B, the main study group, were euthanized on Day 18, the lungs removed and processed for analysis of metastatic burden.
as §2
where w=width and 1=length, in mm, of the tumor. Tumor weight may be estimated with the assumption that 1 mg is equivalent to 1 mm3 of tumor volume. […]

[5] = HBI-8000 50 mg/kg p.o., qd × 21
[6] = Eribulin mesylate 0.3 mg/kg i.v., qowk × 2
[7] = Eribulin mesylate 1.0 mg/kg i.v., qowk × 2

Structure (SMILES) | primary tumor volume distribution [1] | number of lung metastatic foci [2] | tumor volume distribution ([3]; Example 1, HBI-8000 monotherapy 50 mg/kg, P<0.01) | Median TTE [3, 5] [days] | % TGD [3, 5] [%] | metastatic lung foci [4] | Median TTE [3, 6] [days] | % TGD [3, 6] [%] | Median TTE [3, 7] [days] | % TGD [3, 7] [%]
Nc1cc(F)ccc1NC(=O)c1ccc(CNC(=O)/C=C/c2cccnc2)cc1 [HBI-8000, N-(2-amino-4-fluorophenyl)-4-[[[(2E)-1-oxo-3-(3-pyridinyl)-2-propen-1-yl]amino]methyl]benzamide] | statistically significant (P<0.001) decrease in primary tumor volume distribution compared to vehicle controls | did not significantly inhibit the number of lung metastatic foci | significant ((P<0.01) reduction in the tumor volume distribution | 18.8 | 12 | statistically significant (P<0.05) decrease in metastatic lung foci | – | – | – | –
C=C1C[C@@H]2CC[C@@]34C[C@H]5O[C@H]6[C@@H](O3)[C@H]3OC(CC[C@@H]3O[C@H]6C5O4)CC(=O)C[C@@H]3[C@@H](OC)[C@@H](C[C@H](O)CN)O[C@H]3CC3O[C@@H](CCC1O2)C[C@@H](C)C3=C [Eribulin mesylate, 11,15:18,21:24,28 Triepoxy-7,9-ethano-12,15-methano-9H, 15H-furo[3,2-i]furo[2′,3′: 5,6]pyrano[4,3b][1,4]dioxacyclopentacosin-5(4H)-one,2-[(2S)-3-amino-2-hydroxypropyl]hexacosahydro-3 methoxy-26-methyl-20,27-bis(methylene)-, (2R,3R,3aS,7R,8aS,9S,10aR,11S,12R,13aR,13bS,15S,18S,21 S,24S,26R,28R,29aS)-, methanesulfonate (salt)] | did not produce a statistically significant decrease in primary tumor volume distribution | did not significantly inhibit the number of lung metastatic foci | – | – | – | did not produce a statistically significant decrease in metastatic lung foci | 17.8 | 6 | 17.6 | 5
